For the test, the target named is T1, eEF2 (Saccharomyces cerevisiae, UniProt P32324).
T1 construct: gene EFT1; native full-length eEF2 purified from yeast, diphthamide at residue 699
As to the kind of experiment: X-ray crystallography, […] Å. Particulars: on the 80S ribosome with mRNA, Phe-tRNAPhe and fMet-tRNAfMet; GTP pocket of G domain, next to sarcin-ricin loop; Mg2+; 0.25 mM ligand. It counts as binding.

T1 sequence (P32324 whole entry): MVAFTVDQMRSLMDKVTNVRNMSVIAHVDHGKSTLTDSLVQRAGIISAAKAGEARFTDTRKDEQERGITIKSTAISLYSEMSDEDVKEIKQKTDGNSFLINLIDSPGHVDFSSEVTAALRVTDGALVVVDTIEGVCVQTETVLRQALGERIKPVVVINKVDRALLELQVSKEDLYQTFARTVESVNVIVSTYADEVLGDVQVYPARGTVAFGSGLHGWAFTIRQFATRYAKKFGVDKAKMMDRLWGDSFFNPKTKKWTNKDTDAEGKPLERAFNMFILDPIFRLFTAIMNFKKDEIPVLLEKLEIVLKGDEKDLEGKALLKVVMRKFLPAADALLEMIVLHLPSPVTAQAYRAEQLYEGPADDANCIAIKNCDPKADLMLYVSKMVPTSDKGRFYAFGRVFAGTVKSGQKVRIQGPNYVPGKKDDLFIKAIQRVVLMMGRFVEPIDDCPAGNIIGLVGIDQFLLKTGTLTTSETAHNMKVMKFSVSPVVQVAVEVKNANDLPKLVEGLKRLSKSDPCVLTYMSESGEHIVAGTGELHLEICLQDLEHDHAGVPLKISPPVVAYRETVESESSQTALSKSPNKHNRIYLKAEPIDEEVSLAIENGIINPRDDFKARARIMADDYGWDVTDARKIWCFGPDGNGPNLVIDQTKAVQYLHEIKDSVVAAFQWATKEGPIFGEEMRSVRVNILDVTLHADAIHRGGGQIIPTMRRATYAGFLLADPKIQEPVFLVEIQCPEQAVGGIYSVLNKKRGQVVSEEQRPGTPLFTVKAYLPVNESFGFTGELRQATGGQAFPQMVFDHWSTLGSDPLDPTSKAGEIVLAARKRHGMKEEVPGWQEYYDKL

In the case of `Nc1nc2c(ncn2[C@@H]2O[C@H](COP(=O)(O)OP(=O)(O)CP(=O)(O)O)[C@@H](O)[C@H]2O)c(=O)[nH]1` [GMPPCP], the “X-ray crystallography, 3.2 Å” value was “native S. cerevisiae eEF2, the nonhydrolyzable GTP analogue GMPPCP, mRNA and two tRNAs”.

Source of the values: publication PMC8674143, “Accuracy mechanism of eukaryotic ribosome translocation” (Nature, 2021).
